The source of these data is article PMC7956625, “Optimization and Anti-Cancer Properties of Fluoromethylketones as Covalent Inhibitors for Ubiquitin C-Terminal Hydrolase L1” (Molecules, 2021).

Where a SMILES comes first, the peptide text is derived from it. [ ]: non-standard residue; d: D form. The star is where a group is joined. Cbz = O=C(OCc1ccccc1)*; CH2Cl = ClC*; CH2F = FC* A value given as a limit tells only on which side of the number the result lay.

Data set [1] has as its target T1, UCHL1 (Homo sapiens, UniProt P09936).
T1 sequence (P09936 1-223): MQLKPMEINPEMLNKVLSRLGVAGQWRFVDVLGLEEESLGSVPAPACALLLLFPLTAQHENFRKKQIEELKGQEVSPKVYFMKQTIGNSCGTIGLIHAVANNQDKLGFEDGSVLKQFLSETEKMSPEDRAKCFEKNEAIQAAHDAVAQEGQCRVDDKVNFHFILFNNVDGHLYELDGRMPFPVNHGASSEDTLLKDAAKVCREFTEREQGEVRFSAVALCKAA
Description: Fluorescence-based Ub-Rho deubiquitinase activity assay. The settings on record: for IC50: 3 h of preincubation with UCHL1, technical triplicate, averages, read-out: IC50; for in vitro activity against UCHL1: up to 200 µM. Format: biochemical. On the set-up: made in house. The method, then: Thus, a 3-h preincubation period was selected for the structure-activity relationship (SAR) comparison of all analogs to ensure full reaction time and for consistent comparison of activity against UCHL1 within the scaffold. […] A 10 mM stock solution was made for each inhibitor in DMSO, then a dilution of 600 µM in reaction buffer was made followed eight by 1:1 serial dilutions. […] These were allowed to incubate, while sealed, for the 3 h at room temperature. […] The % activity was plotted as a function of inhibitor concentration and the data was fitted with non-linear regression analysis to calculate the IC50 values. Errors are reported as the 95% confidence interval calculated from experiments collected in technical triplicate.

In data set [2] the target is T1, UCHL1. Described as above. Format: biochemical. Further details: made in house. The settings on record: even after 6 h of incubation with the enzyme.
Data set [3] has as its target T1, UCHL1. Description: Time-dependent inhibitor analysis (kinact/KI). The format is biochemical. On the set-up: made in house. The method, then: Irreversible covalent inhibitors may be further characterized by determining the reversible binding constant (KI) as well as the rate of the covalent bond formation under saturating conditions (kinact). By determining the IC50 over the course of various timepoints, the pseudo first-order rate constant (kobs) could be calculated. […] The % activity of each inhibitor concentration was the plotted vs. time of pre-incubation and the slope of this plot is the pseudo first-order rate constant (kobs) for inhibition at each concentration. The kobs was plotted as a function of inhibitor concentration and then fit to the equation Y = kinactX/(KI + X) to calculate kinact, KI and kinact/KI as described by Resnick et al..

Data set [4] addresses T1, UCHL1. On the set-up: made in house. Particulars: previous studies; cited from earlier work.
In data set [5] the test system is KMS-12 cell lines. On the set-up: method as in PMID 31449350. Particulars: cells do not express UCHL1; cited from earlier work.
Data set [6] in a line: SW1271 cell viability assay. The format is cell-based. The settings on record: human, SW1271 small cell lung cancer cells (luciferase-constructed), SW1271 cells. The procedure:
UCHL1 is a key promoter of cell invasion and metastasis in small cell lung cancer but not necessarily required for cell viability or proliferation. Thus, we chose to assess the efficacy of targeting UCHL1 using the SW1271 small cell lung cancer cell line. […] The Ub-ABP assay was used to confirm on target engagement of UCHL1 within these cells.
Luciferase-constructed cancer cells were seeded in 96-well plates at 10,000 cells/well with the compounds at the indicated concentrations. DMSO was used as vehicle control. Luminescence readings were acquired after adding 1% D-luciferin (GoldBio, St. Louis, MO, USA) after 24 h. Cell viability was determined by the ratio of luminescence reading compared to the one at 0 h, and normalized to vehicle control.

For data set [7], the system named is SW1271 cells. Kind of data set: Click reaction and in-gel fluorescence of treated SW1271 cells. The format is cell-based. Particulars: 100 µM, 4 h. The procedure:
Leveraging the alkyne handle, a click reaction was performed with an azide containing sulfo-cyanine5 fluorophore (Cy5) to visualize proteins within the cells that were conjugated to either the fluoromethylketone 34 or the chloromethylketone 37. Cells were pretreated with either analog then harvested and washed to removed unreacted inhibitor. The cells were then lysed and the click reaction was performed on lysates. […] Further evaluation using proteomic profiling is warranted to gain a quantitative understanding on the potential for non-specificity at off-target cysteines.
Cells were treated with 100 µM inhibitor or DMSO for 4 h before being washed, scraped, and lysed in 200 µL of lysis buffer (1× PBS, 1% v/v Triton X-100, 0.1% w/v SDS, 1X HALT) for 30 min on ice with vigorous vortexing every 10 min. Samples were then pelleted at 17,000× g for 10 min before collecting the supernatant and measuring concentration using BCA. Samples were normalized to 2 mg/mL and stored at −80 °C overnight. The following day, samples were thawed. While thawing, a click cocktail was prepared (for each sample, the cocktail consists of: 3 µL of 1.7 mM THPTA in 1:4 tBuOH/DMSO, 1 µL of 50 mM CuSO4 in water, 1 µL of 1.25 mM Cy5-N3 in DMSO, and 1 µL of 50 mM TCEP in water freshly prepared). […] The samples were then analyzed by SDS-PAGE and imaged on a Licor Odyssey and subsequently Coomassie stained.

Where [8] appears, read: IC50 comparison, 3 h preincubation.

As to `C#Cc1ccc(COC(=O)N[C@H](C(=O)NCC(=O)N[C@@H](CCC(=O)OC)C(=O)CF)C(C)C)cc1` [Cpd 35], in data set [1], the IC50 is 62 µM. Also, the “fold more active than non-alkyne analog 15” value in data set [1] (setting [8]) is reported as “about 1.5 fold”.

For `COC(=O)CC[C@H](NC(=O)[C@H](CC(N)=O)NC(=O)[C@@H](NC(=O)OCc1ccccc1)C(C)C)C(=O)CF` [Cpd 31] (Cbz-Val-Asn-Glu(OMe)-CH2F), in data set [1], the IC50 was more than 200 µM.

As for `COC(=O)CC[C@H](NC(=O)[C@H](CC(C)C)NC(=O)[C@@H](NC(=O)OCc1ccccc1)C(C)C)C(=O)CF` [Cpd 27] (Cbz-Val-Leu-Glu(OMe)-CH2F), the IC50 in data set [1] is more than 200 µM.

As for `CC(C)[C@H](NC(=O)OCc1ccccc1)C(=O)NCC(=O)N[C@@H](CCC(=O)O)C(=O)CF` [Cpd 16] (Cbz-Val-Gly-Glu-CH2F), the “in vitro activity against UCHL1” value in data set [2] is listed as “complete abrogation of activity”. Besides, in data set [1], the IC50 is more than 200 µM.

For `COC(=O)CC[C@H](NC(=O)[C@H](C)NC(=O)[C@H](Cc1ccccc1)NC(=O)OCc1ccccc1)C(=O)CF` [Cpd 21, Cbz-L-Phe-L-Ala-L-Glu(OMe)-fluoromethylketone] (Cbz-Phe-Ala-Glu(OMe)-CH2F), in data set [1], the IC50 worked out at 13 µM.

For `C#Cc1ccc(COC(=O)N[C@@H](Cc2ccccc2)C(=O)N[C@@H](C)C(=O)N[C@@H](CCC(=O)OC)C(=O)CF)cc1` [Cpd 36], the kinact/KI in data set [3] (Table 3 and text, read-out: kinact/KI) was found to be 208 M⁻¹ s⁻¹. The kinact in data set [3] (read-out: kinact) was 0.0157 s⁻¹. The Ki in data set [3] (reversible binding constant of covalent inhibition, read-out: KI) turned out to be 75.3 µM. Besides, the IC50 in data set [1] amounted to 11 µM. In data set [1] (setting [8]), the “fold more active than 1 versus UCHL1” value was 2 fold.

Take `COC(=O)C[C@H](NC(=O)[C@H](C)NC(=O)[C@@H](NC(=O)OCc1ccccc1)C(C)C)C(=O)CF` [VADFMK] (Cbz-Val-Ala-Asp(OMe)-CH2F): the “activity against UCHL1” value in data set [4] was “inactive”.

On to `N#CN1CCC[C@H]1C(=O)N1CCc2c(-c3cn[nH]c3C(F)(F)F)cccc21` [MT-19], for which, in data set [5], the “anti-proliferative properties in KMS-12 cell lines” value is recorded as “anti-proliferative properties”.

With `COC(=O)CC[C@H](NC(=O)CNC(=O)[C@@H](NC(=O)OCc1ccccc1)C(C)C)C(=O)CF` [Cpd 15] (Cbz-Val-Gly-Glu(OMe)-CH2F), the IC50 in data set [1] is 95 µM.

In data set [6], `COC(=O)CC[C@H](NC(=O)[C@H](C)NC(=O)[C@@H](NC(=O)OCc1ccccc1)C(C)C)C(=O)CCl` [Cpd 14] (Cbz-Val-Ala-Glu(OMe)-CH2Cl) gave a CC50 at 24 h of 0.156 µM. For the same compound, in data set [1], the IC50 is more than 200 µM and the “in vitro activity against UCHL1” value is recorded as “complete loss of in vitro activity”.

On to `COC(=O)CC[C@H](NC(=O)[C@H](C)NC(=O)[C@H](CC(N)=O)NC(=O)OCc1ccccc1)C(=O)CF` [Cpd 24] (Cbz-Asn-Ala-Glu(OMe)-CH2F), for which, in data set [1], the IC50 came out at 119 µM.

On to `COC(=O)CC[C@H](NC(=O)[C@H](Cc1ccccc1)NC(=O)[C@@H](NC(=O)OCc1ccccc1)C(C)C)C(=O)CF` [Cpd 28] (Cbz-Val-Phe-Glu(OMe)-CH2F), for which, in data set [1], the half-inhibitory concentration (IC50) is more than 200 µM.

For `COC(=O)CC[C@H](NC(=O)[C@H](CO)NC(=O)[C@@H](NC(=O)OCc1ccccc1)C(C)C)C(=O)CF` [Cpd 29] (Cbz-Val-Ser-Glu(OMe)-CH2F), the 50% inhibitory concentration (IC50) in data set [1] stood at 100 µM.

`COC(=O)CC[C@H](NC(=O)[C@H](C)NC(=O)[C@H](NC(=O)OCc1ccccc1)C(C)C)C(=O)CF` [Cpd 17] (Cbz-[dV]-Ala-Glu(OMe)-CH2F): in data set [1], the IC50 is more than 200 µM and the “in vitro activity against UCHL1” value was “complete loss of activity”.

`COC(=O)CC[C@H](NC(=O)[C@H](C)NC(=O)[C@H](CO)NC(=O)OCc1ccccc1)C(=O)CF` [Cpd 22] (Cbz-Ser-Ala-Glu(OMe)-CH2F): the 50% inhibitory concentration (IC50) in data set [1] was determined as 185 µM.

Turning to `COC(=O)CC[C@H](NC(=O)[C@H](C)NC(=O)[C@H](CC(C)C)NC(=O)OCc1ccccc1)C(=O)CF` [Cpd 20] (Cbz-Leu-Ala-Glu(OMe)-CH2F), the IC50 in data set [1] was determined as 23 µM.

Turning to `COC(=O)CC[C@H](NC(=O)[C@@H](C)NC(=O)[C@@H](NC(=O)OCc1ccccc1)C(C)C)C(=O)CF` [Cpd 26] (Cbz-Val-[dA]-Glu(OMe)-CH2F), in data set [1], the IC50 is more than 200 µM and the “in vitro activity against UCHL1” value is “loss of activity”.

As to `COC(=O)CC[C@H](NC(=O)[C@H](C)NC(=O)[C@@H](NC(=O)OCc1ccccc1)[C@@H](C)O)C(=O)CF` [Cpd 23] (Cbz-Thr-Ala-Glu(OMe)-CH2F), the IC50 in data set [1] was 100 µM.

For `COC(=O)CC[C@H](NC(=O)[C@H](C)NC(=O)[C@H](C)NC(=O)OCc1ccccc1)C(=O)CF` [Cpd 19] (Cbz-Ala-Ala-Glu(OMe)-CH2F), the IC50 in data set [1] came to 76 µM. For the same compound, the “fold less effective than parent compound 1” value in data set [1] (setting [8]) is listed as 3 fold.

On to `COC(=O)CC[C@H](NC(=O)[C@@H](NC(=O)[C@@H](NC(=O)OCc1ccccc1)C(C)C)[C@@H](C)O)C(=O)CF` [Cpd 30] (Cbz-Val-Thr-Glu(OMe)-CH2F), for which the IC50 in data set [1] is more than 200 µM.

As for `COC(=O)CC[C@H](NC(=O)[C@H](CCC(=O)O)NC(=O)[C@@H](NC(=O)OCc1ccccc1)C(C)C)C(=O)CF` [Cpd 33] (Cbz-Val-Glu-Glu(OMe)-CH2F), the IC50 in data set [1] was more than 200 µM.

Take `COC(=O)CC[C@H](NC(=O)[C@H](C)NC(=O)[C@H](CC(=O)O)NC(=O)OCc1ccccc1)C(=O)CF` [Cpd 25] (Cbz-Asp-Ala-Glu(OMe)-CH2F): in data set [1], the IC50 was more than 200 µM.

Turning to `C#Cc1ccc(COC(=O)N[C@H](C(=O)N[C@@H](C)C(=O)N[C@@H](CCC(=O)OC)C(=O)CCl)C(C)C)cc1` [Cpd 37], in data set [7], the “proteins labelled in SW1271 cells (Cy5 click, in-gel fluorescence)” value is on record as “non-specifically label multiple proteins within the cell”. In data set [6], this compound registered a CC50 at 24 h of 0.176 µM. For the same compound, in data set [1], the IC50 is more than 200 µM and the “in vitro activity against UCHL1” value is “inactive”.

Consider `COC(=O)CC[C@H](NC(=O)[C@H](C)NC(=O)CNC(=O)OCc1ccccc1)C(=O)CF` [Cpd 18] (Cbz-Gly-Ala-Glu(OMe)-CH2F), for which, in data set [1], the 50% inhibitory concentration (IC50) was more than 200 µM and the “in vitro activity against UCHL1” value is recorded as “complete abrogation of activity”.

With `COC(=O)CC[C@H](NC(=O)[C@H](CC(=O)O)NC(=O)[C@@H](NC(=O)OCc1ccccc1)C(C)C)C(=O)CF` [Cpd 32] (Cbz-Val-Asp-Glu(OMe)-CH2F), the IC50 in data set [1] is more than 200 µM.

What is called IC50 is the midpoint of a concentration-inhibition curve. A word on the kinact: it is the rate constant of inactivation at saturating inhibitor. The term CC50 denotes the concentration at which the toxic effect on the cells reaches its halfway point. A high value points to lower toxicity to the cells.
